Source: patent US9550763B2, “Heterocyclic ring and carbocyclic derivative” (Shionogi & Co., Ltd., priority 2012, dated 2017)

Target: T1, human P2X3 receptor (Homo sapiens (Human), UniProt P56373)
Assay: Evaluation of human P2X3 receptor inhibitory activity (Test Example 1-2, FLIPR 384, 384-well, 150 nM ATP)
Assay type: cell-based
Details: human P2X3 receptor in C6BU-1 cells; Test Example 1-2 (compounds I-301 to I-483); read-out: P2X3 IC50
Procedure: Stably expressing cell line (C6BU-1 cell transfected with human P2X3 receptor gene (GenBank accession number Y07683) was used. The cells were seeded in a 384-well microtiter plate at a concentration of 3000 cells/well and cultured in the medium (7.0% fetal bovine serum, 7.0% horse serum, 1% antibiotic and antifungal in DMEM) for one day at 37° C. under 5% carbon dioxide atmosphere. The medium was replaced with 4 μM Fluo-3-AM solution (20 mM HEPES, […], 5.27 mM KCl, 0.9 mM MgCl2, 1.26 mM CaCl2, 5.6 mM D-glucose, 2.5 mM probenecid, 0.5% BSA, and 0.04% Pluronic F-127, pH 7.5) and incubated at 37° C. under 5% dioxide carbon atmosphere for one hour. The plate was washed with washing buffer (20 mM HEPES, 137 mM NaCl, 5.27 mM KCl, 0.9 mM MgCl2, 1.26 mM CaCl2, 5.6 mM D-glucose, 2.5 mM probenecid, pH7.5), and each well was added with 20 μL of this buffer. The plate was placed in High-Throughput Screening System FLIPR 384 (Molecular Device Co.). Measurement of fluorescence intensity by FLIPR 384 was started, and 20 μL of DMSO solutions containing different concentrations of the test compound as prepared by dilution with dilution buffer (20 mM HEPES, 137 mM NaCl, 5.27 mM KCl, 0.9 mM MgCl2, 1.26 mM CaCl2, 5.6 mM D-glucose, 2.5 mM probenecid, 0.1% Pluronic F-127, pH 7.5) were dispensed to each well through the built-in automatic dispenser. Five minutes after, 150 nM ATP solution (25 μL) prepared by dilution with the dilution buffer was dispensed through the built-in automatic dispenser, and the measurement of fluorescence intensity was continued for 4 min. For each well, the specific maximum fluorescence intensity was calculated as the ratio of the maximum fluorescence intensity after addition of the ATP solution to the fluorescence intensity at the starting of the measurement. The 50% inhibitory concentration (IC50) was calculated under the assumption that the specific maximum fluorescence intensity without test compound is 0% inhibition and that the specific maximum fluorescence intensity when the dilution buffer was added in place of ATP solution is 100% inhibition, to evaluate the inhibitory activity of the test compound. The specific maximum fluorescence intensity and IC50 were calculated using Spotfire (Science & Technology Systems, Inc.)
The data of the compounds I-001 to I-300 are the results by the method mentioned in Test Example 1-1, and the data of the compounds I-301 to I-483 are the results by the method mentioned in Test Example 1-2.

T1 sequence (P56373 whole entry): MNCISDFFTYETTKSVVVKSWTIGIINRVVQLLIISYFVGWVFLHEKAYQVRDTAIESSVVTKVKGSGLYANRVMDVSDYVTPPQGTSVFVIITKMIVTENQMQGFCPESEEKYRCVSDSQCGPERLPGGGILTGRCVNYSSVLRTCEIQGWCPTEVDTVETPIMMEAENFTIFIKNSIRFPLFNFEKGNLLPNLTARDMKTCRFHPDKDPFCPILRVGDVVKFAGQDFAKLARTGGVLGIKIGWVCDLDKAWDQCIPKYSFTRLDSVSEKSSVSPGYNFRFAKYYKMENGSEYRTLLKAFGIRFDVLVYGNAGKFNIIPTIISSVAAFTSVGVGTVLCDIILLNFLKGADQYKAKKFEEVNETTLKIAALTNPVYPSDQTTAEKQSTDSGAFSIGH

In order of falling IC50:
1. CCCn1c(=O)c(F)c(Nc2ccc(Oc3cccc(C#N)n3)c(C)n2)n(Cc2ccc(Cl)cc2)c1=O [Compound I-301]  163 nM
2. CCCn1c(=O)c(F)c(Nc2ccc(Oc3cccc(C(=O)O)c3)cc2)n(Cc2ccc(Cl)cc2)c1=O [Compound I-303]  109 nM
3. CCC(=O)Nc1c[nH]/c(=N\c2ccc(Oc3ccc(C(=O)OC)nn3)cc2)n(Cc2ccc(Cl)cc2)c1=O [Compound I-305]  5 nM

Target: T1, human P2X3 receptor
Assay: Evaluation of human P2X3 receptor inhibitory activity (Test Example 1-1, FDSS 3000, 96-well, 50 nM ATP)
Assay type: cell-based
Details: human P2X3 receptor in C6BU-1 cells; Test Example 1-1 (compounds I-001 to I-300)
Procedure, shortened: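 C6BU-1 cells stably expressing human P2X3, loaded with 4 μM Fluo-3-AM (pH 7.5), preincubated 5 min with compound before 50 nM ATP challenge; fluorescence followed 4 min on FDSS 3000. IC50 derived from peak/baseline fluorescence ratio, no-compound as 0% and buffer-instead-of-ATP as 100% inhibition.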

In order of falling IC50:
1. O=C(Nc1c[nH]/c(=N\c2ccc(Oc3ccon3)cc2)n(Cc2ccc(Cl)cc2)c1=O)c1ccccn1 [Compound I-254]  868 nM
2. COC(=O)[C@@H](C)Cn1c(=O)cc(Nc2ccc(Oc3cccc(F)c3)c(C)n2)n(Cc2ccc(Cl)cc2)c1=O [Compound I-244]  646 nM
3. O=C(NC1CCOCC1)c1cn(Cc2ccccn2)c(Nc2ccc(Oc3cccc(F)n3)cc2)nc1=O [Compound I-295]  618 nM
4. CN/C(=N\C#N)Nc1c[nH]/c(=N\c2ccc(Oc3ccon3)cc2)n(Cc2ccc(Cl)cc2)c1=O [Compound I-243]  557 nM
5. N#Cc1c[nH]/c(=N\c2ccc(Oc3ccc(F)cn3)cc2)n(Cc2ccc(Cl)cc2)c1=O [Compound I-261]  498 nM
6. O=c1c(-c2ccncc2)c[nH]/c(=N\c2ccc(Oc3ccon3)cc2)n1Cc1ccc(Cl)cc1 [Compound I-274]  356 nM
7. CCC(=O)Nc1c[nH]/c(=N\c2ccc(Oc3ccnc(C(=O)OC)c3)cc2)n(Cc2ccc(Cl)cn2)c1=O [Compound I-287]  356 nM
8. O=C(NC1CCOCC1)c1cn(Cc2cccc(F)c2)c(Nc2ccc(Oc3cccc(F)n3)cc2)nc1=O [Compound I-283]  226 nM
9. O=c1c(-c2ccccn2)c[nH]/c(=N\c2ccc(Oc3ccon3)cc2)n1Cc1ccc(Cl)cc1 [Compound I-272]  211 nM
10. O=c1c(-c2cccnc2)c[nH]/c(=N\c2ccc(Oc3ccon3)cc2)n1Cc1ccc(Cl)cc1 [Compound I-273]  201 nM
11. CC(c1ccc(Cl)cc1)n1cc(C(=O)NC2CCOCC2)c(=O)nc1Nc1ccc(Oc2cccc(F)n2)cc1 (stereo not drawn) [Compound I-270]  175 nM
12. CCC(=O)Nc1c[nH]/c(=N\c2ccc(Oc3ccnc(C(N)=O)c3)cc2)n(Cc2ccc(Cl)cn2)c1=O [Compound I-277]  172 nM
13. CCC(=O)Nc1c[nH]/c(=N\c2ccc(Oc3ccnc(C#N)c3)cc2)n(Cc2ccc(Cl)cn2)c1=O [Compound I-276]  165 nM
14. Cc1cc(C(=O)Nc2c[nH]/c(=N\c3ccc(Oc4ccon4)cc3)n(Cc3ccc(Cl)cc3)c2=O)on1 [Compound I-255]  147 nM
15. O=C(NC1CCOCC1)c1cn(Cc2ccccc2)c(Nc2ccc(Oc3cccc(F)n3)cc2)nc1=O [Compound I-280]  139 nM
16. CCN/C(=N\C#N)Nc1c[nH]/c(=N\c2ccc(Oc3ccon3)cc2)n(Cc2ccc(Cl)cc2)c1=O [Compound I-251]  118 nM
17. CCc1oc2ccc(/N=c3\[nH]cc(NC(=O)C4CCOCC4)c(=O)n3Cc3ccc(Cl)cn3)cc2c1C [Compound I-262]  98 nM
18. CCCn1c(=O)cc(Nc2ccc(Oc3cccc(C#N)c3)c(C)n2)n(Cc2ccc(Cl)cc2)c1=O [Compound I-247]  96 nM
19. O=C(Nc1c[nH]/c(=N\c2ccc(Oc3ccon3)cc2)n(Cc2ccc(Cl)cc2)c1=O)c1cocn1 [Compound I-268]  85 nM
20. Cc1cnc(-c2c[nH]/c(=N\c3ccc(Oc4ccon4)cc3)n(Cc3ccc(Cl)cc3)c2=O)o1 [Compound I-294]  84 nM
21. CCn1c(=O)cc(Nc2ccc(Oc3cccc(C#N)c3)c(C)n2)n(Cc2ccc(Cl)cc2)c1=O [Compound I-246]  71 nM
22. O=C(Nc1c[nH]/c(=N\c2ccc(Oc3ccon3)cc2)n(Cc2ccc(Cl)cc2)c1=O)c1ccncc1 [Compound I-266]  68 nM
23. O=C(Nc1c[nH]/c(=N\c2ccc(Oc3ccon3)cc2)n(Cc2ccc(Cl)cc2)c1=O)c1ccccc1 [Compound I-253]  61 nM
24. Cc1nc(Nc2cc(=O)n(C[C@H](C)C(=O)O)c(=O)n2Cc2ccc(Cl)cc2)ccc1Oc1cccc(F)c1 [Compound I-245]  58 nM
25. O=C(Nc1c[nH]/c(=N\c2ccc(Oc3ccon3)cc2)n(Cc2ccc(Cl)cn2)c1=O)C1CCOCC1 [Compound I-275]  51 nM
26. O=C(Nc1c[nH]/c(=N\c2ccc(Oc3ccon3)cc2)n(Cc2ccc(Cl)cc2)c1=O)c1cccnc1 [Compound I-265]  48 nM
27. O=C(Nc1c[nH]/c(=N\c2ccc(Oc3ccon3)cc2)n(Cc2ccc(Cl)cc2)c1=O)c1ccoc1 [Compound I-267]  45 nM
28. O=C(NC1CCOCC1)c1cn(Cc2ccccc2F)c(Nc2ccc(Oc3cccc(F)n3)cc2)nc1=O [Compound I-284]  42 nM
29. CNC(=O)c1c[nH]/c(=N\c2ccc(Oc3nc(C)ns3)cc2)n(Cc2ccc(Cl)cc2)c1=O [Compound I-257]  41 nM
30. O=C(NC1CCOCC1)c1cn(Cc2ccc(F)cc2)c(Nc2ccc(Oc3cccc(F)n3)cc2)nc1=O [Compound I-281]  41 nM
31. CCn1c(=O)cc(Nc2ccc(Oc3cccc(C(N)=O)c3)c(C)n2)n(Cc2ccc(Cl)cc2)c1=O [Compound I-260]  36 nM
32. CCn1c(=O)cc(Nc2ccc(Oc3cccc(C(=O)O)c3)c(C)n2)n(Cc2ccc(Cl)cc2)c1=O [Compound I-258]  27 nM
33. CCC(=O)Nc1c[nH]/c(=N\c2ccc(Oc3ccnc(C(=O)O)c3)cc2)n(Cc2ccc(Cl)cn2)c1=O [Compound I-289]  24 nM
34. Cc1ccc(Oc2ccc(Nc3nc(=O)c(C(=O)NCC(=O)N(C)C)cn3Cc3ccc(Cl)cc3)cc2)nn1 [Compound I-298]  23 nM
35. CN(C)C(=O)CNC(=O)c1cn(Cc2ccc(Cl)cc2)c(Nc2ccc(Oc3ccc(F)cn3)cc2)nc1=O [Compound I-297]  21 nM
36. Cc1cnc(-c2c[nH]/c(=N\c3ccc(Oc4cccc(C#N)n4)cc3)n(Cc3ccc(Cl)cc3)c2=O)o1 [Compound I-278, 1-(4-chlorobenzyl)-2-[4-(6-cyano-2-pyridyloxy)phenylamino]-5-(5-methyloxazol-2-yl)pyrimidin-6(1H)-one]  20 nM
37. CN(C)C(=O)CNC(=O)c1cn(Cc2ccc(Cl)cc2)c(Nc2ccc(Oc3cccc(F)n3)cc2)nc1=O [Compound I-299]  18 nM
38. CCCn1c(=O)cc(Nc2ccc(Oc3cccc(C(=O)O)c3)c(C)n2)n(Cc2ccc(Cl)cc2)c1=O [Compound I-259]  16 nM
39. Cc1oncc1C(=O)Nc1c[nH]/c(=N\c2ccc(Oc3ccon3)cc2)n(Cc2ccc(Cl)cc2)c1=O [Compound I-269]  16 nM
40. Cc1nocc1C(=O)Nc1c[nH]/c(=N\c2ccc(Oc3ccon3)cc2)n(Cc2ccc(Cl)cc2)c1=O [Compound I-264]  15 nM
41. Cc1cnc(-c2c[nH]/c(=N\c3ccc(Oc4cccc(C(N)=O)n4)cc3)n(Cc3ccc(Cl)cc3)c2=O)o1 [Compound I-288]  15 nM
42. O=C(Nc1cnc(Nc2ccc3nc(C(F)F)sc3c2)n(Cc2ccc(Cl)cc2)c1=O)C1CCOCC1 [Compound I-300]  15 nM
43. Cc1noc(C)c1C(=O)Nc1c[nH]/c(=N\c2ccc(Oc3ccon3)cc2)n(Cc2ccc(Cl)cc2)c1=O [Compound I-256]  14 nM
44. C/C(O)=C(/C#N)C(=O)Nc1c[nH]/c(=N\c2ccc(Oc3ccon3)cc2)n(Cc2ccc(Cl)cc2)c1=O [Compound I-242]  6 nM
45. Cc1cc(/N=c2\[nH]cc(NC(=O)C3CCOCC3)c(=O)n2Cc2ccc(Cl)cc2)ccc1Oc1ccon1 [Compound I-248]  6 nM
46. Cc1cc(Oc2ccc(/N=c3\[nH]cc(NC(=O)C4CCOCC4)c(=O)n3Cc3ccc(Cl)cc3)cc2F)no1 [Compound I-249]  6 nM
47. Cc1ccc(Cn2cc(C(=O)NC3CCOCC3)c(=O)nc2Nc2ccc(Oc3cccc(F)n3)cc2)cc1 [Compound I-282]  6 nM
48. Cc1cnc(-c2c[nH]/c(=N\c3ccc(Oc4cccc(C(=O)O)n4)cc3)n(Cc3ccc(Cl)cc3)c2=O)o1 [Compound I-290, 1-(4-chlorobenzyl)-2-[4-(6-hydroxycarbonyl-2-pyridyloxy)phenylamino]-5-(5-methyloxazol-2-yl)pyrimidin-6(1H)-one]  4 nM
